Results on five compounds are retold here after US10758541B2, “Formulations of milciclib and therapeutic combinations of the same for use in the treatment of cancer” (Tiziana Life Sciences PLC, priority 2017, dated 2020).

Like-named read-outs stand apart in the source and are kept apart here.

In general, IC50 refers to the concentration at which inhibition is half-maximal.

Experiment [1] concerns MHCC97L cells. In words: IC50 values by cell proliferation assay (WST-1). The conditions noted are these: Homo sapiens, individual inhibitor, 72 hours. Format: cell-based. An excerpt: (§1) See Shailubhai, K et al. “Atiprimod is an inhibitor of cancer cell proliferation and angiogenesis.” J Exp Ther Oncol. 2004; 4: 267-279; and Choudhari et al. “Deactivation of Akt and STAT3 signaling promotes apoptosis, inhibits proliferation, and enhances the sensitivity of hepatocellular carcinoma cells to an anticancer agent, atiprimod” Molecular Cancer Therapeutics. 2007; 6: 112-121. References are incorporated herein in their entireties.
(§2) MHCC97H and MHCC97L (highly metastatic hepatocellular carcinoma cell line, derived from humans)
(§3) Cells (MHCC97H, MHCC97L, and HepG2.2.15) were cultured for 24 hours in 2% FBS and then were trypsinized, resuspended in 2% FBS and seeded in a rat collagen coated 96-well plate at a density of 10,000 cells/100 μl/well, a day before the experiment and cultured at 37° C. in 5% CO2. The cells were treated the next day with milciclib, sorafenib, regorafenib, sunitinib, and lenvatinib, individually or in combination in DMEM/F12+2% FBS+for 72 hours prior to the addition of WST-1 reagent. About 100 μL media was added to control well. After cells had been cultured for 72 hours with different drug concentrations, cells were washed 3 times with sterile 1× Phosphate buffered saline (PBS). To determine cell proliferation by the colorimetric test, 10 μL of WST-1 reagent (Sigma Aldrich, St Louis, Mo.) was added in 100 μL cell culture media and incubated for 2 hours in 5% CO2 at 37° C. At the end of incubation period, the plate was placed on a plate shaker for 1 minute and was monitored using a spectrophotometer at an optical density of 450 nm with a reference wavelength of 600 nm using Tecan F200 and iControl software. IC50 values were determined using GraphPad Prism (GraphPad Software, La Jolla, Calif.). Each experiment was performed in duplicate and repeated 2 times.
A general note: Tetrazolium dyes change colour on reduction, which living cells bring about.

Experiment [2] concerns MHCC97H cells. In words: IC50 values by cell proliferation assay (WST-1). It counts as cell-based, human. How it is done: as §2
as §3, with “After cells had been cultured for 72 hours with different drug concentrations, cells were washed 3 times with sterile 1× Phosphate buffered saline (PBS).” left out

For a further experiment, the system named is HepG2.2.15 cells. Kind of experiment: IC50 values by cell proliferation assay (WST-1). It counts as cell-based. The following applies: Homo sapiens, read-out: HepG2.2.15 IC50.
From the text: as §1
HepG2.2.15 cells are derived from the human hepatoblastoma cell line HepG2.
as §3

Experiment [3] concerns MHCC97L cells. In words: EMT transwell invasion assay. It counts as cell-based, human. The conditions noted are these: in combination with milciclib, vs individual treatment, P<0.005. How it is done:
(§4) EMT (Epithelial to Mesenchymal Transition) induction employing kit from R&D systems (Cat # CCM017)
(§5) For transwell invasion assay HCC cells were seeded in the top chamber in 6 well transwell plates (Sigma-Aldrich, St. Louis, Mo.) at a density of 100,000 cells/500 μL/well in standard culture media containing 100× StemXVivo® EMT Inducing Media Supplement (R&D systems, Minneapolis, Minn.) and was incubated overnight at 37° C. in humidified CO2 incubator. Next day, EMT inducing media with or without the test articles was added and incubation was continued for 10 days with media changes every 3 days. On the 10th day, the number of cells migrated to the lower chamber was determined using Bio-Rad (Hercules, Calif.) automatic cell counter. Values obtained were expressed as a percentage of invasion and the cell counts of control cells were considered 100%.
(§6) The invasive potential of cancer cells is dependent on losing epithelial characteristics and acquiring a migratory mesenchymal property referred to as Epithelial to Mesenchymal Transition (EMT).

The subject of experiment [4] is MHCC97H cells. In words: EMT transwell invasion assay. Format: cell-based, human. The following applies: in combination with milciclib, vs individual treatment, P<0.005. The method, then: as §4, §5, §6
In another experiment the test system is alpha-fetoprotein (AFP). Kind of experiment: Serum AFP in orthotopic HCC mouse model. Format: in vivo, mice. The following applies: milciclib 30 mg/kg, sorafenib 20 mg/kg, oral, vs vehicle. How it is done:
MHCC97H cells were seeded at a density of 500,000 cells/2 mL/well on a 6 well culture plate and incubated overnight at 37° C. in a humidified CO2 incubator. Cells were then treated with 1.3 μM milciclib or vehicle in DMEM/F12+2% FBS for 72 hours. Subsequently, cells were lysed in RIPA buffer, the supernatant was collected and used to perform ELISA assay as per the manufacturer's instructions. In orthotopic HCC mouse model, levels of serum marker alpha-fetoprotein (AFP) were determined on day 0, 6, 12, 18, 24, 30, 36, 42 and 48 using High Range AFP kit as per manufacturer's instructions.
Mouse experiments were performed in accordance with the guidelines approved by the Institutional Animal Care and use committee of Washington Biotechnology Inc (Baltimore, Md.) where the studies were conducted. (FIG. 66) Test agents were dissolved in chremophor/ethanol (1:1) to make a 5× stock solution and diluted in water when used. MHCC97H human liver cells (5×106) in PBS were mixed with 20% Matrigel and then inoculated orthotopically into the right flank of female Balb/c nude mice. Seven days after cell inoculation, the mice were randomly allocated to either the treatment group (n=12) or the control group (n=12) based on the levels of AFP. The daily animal inspection was conducted for general appearance and tumor growth. […]

Experiment [5] has as its system MHCC97H human liver cells. Kind of experiment: Orthotopic tumor induction in athymic nude mice. It counts as in vivo. The conditions noted are these: oral, once daily day 12 to 47; milciclib 30 mg/kg/day, sorafenib 20 mg/kg/day; vs vehicle. The method, then:
Mouse experiments were performed in accordance with the guidelines approved by the Institutional Animal Care and use committee of Washington Biotechnology Inc (Baltimore, Md.) where the studies were conducted. (FIG. 66) Test agents were dissolved in chremophor/ethanol (1:1) to make a 5× stock solution and diluted in water when used. MHCC97H human liver cells (5×106) in PBS were mixed with 20% Matrigel and then inoculated orthotopically into the right flank of female Balb/c nude mice. Seven days after cell inoculation, the mice were randomly allocated to either the treatment group (n=12) or the control group (n=12) based on the levels of AFP. The daily animal inspection was conducted for general appearance and tumor growth. Milciclib (30 mg/Kg), sorafenib (20 mg/Kg), milciclib+sorafenib or the corresponding vehicle was given orally to individual mice once daily from day 12 until day 47. After completion of the treatment at day 48, animals were euthanized and blood, liver tissues and tumor were collected for gene expression and mechanistic assays. Liver tumors developed 100% of animals challenged with orthotopic MHCC97H injection.

A further experiment concerns miR-221 and miR-222. Kind of experiment: miRNA isolation and expression analysis of tumor tissues. Format: in vivo. The conditions noted are these: tumor tissues from orally treated mice, vs vehicle. The method, then:
miRNA from athymic nude mice following treatment with vehicle, milciclib, sorafenib, or milciclib+sorafenib was isolated from Total RNA using the TaqMan Advanced miRNA cDNA Synthesis Kit (Thermo Fisher Scientific, Rockford, Ill.) according to the manufacturer's instructions. miRNA-221 and miR-222 quantifications were performed in duplicates using TaqMan Advanced miRNA Assay (Thermo Fisher Scientific, Rockford, Ill.) with a sample dilution of 1:10. The PCR mixture was incubated at 95° C. for 20 seconds, followed by 40 cycles of 95° C. for 3 seconds and 60° C. for 30 seconds. Results were normalized to hsa-miR-192-5p as reference miRNA and the relative gene expression calculated as 2−ΔCT was expressed as fold increase over control samples.
Tumor tissues from mice treated with vehicle, sorafenib, milciclib, milciclib+sorafenib and normal liver tissues from naïve untreated mice were collected and levels of miR-221 and miR-222 were determined. The levels of both of miR-221 and miR-222 were elevated in tumors from vehicle treated mice.

[6] abbreviates: Homo sapiens, MHCC97H, individual inhibitor, 72 hours, WST-1, read-out: MHCC97H IC50.
Setting [7] is: Homo sapiens, MHCC97H cells, in combination with fixed 1.3 μM milciclib, read-out: IC50 (μM) KINASE INHIBITORS + 1.3 μM MILCICLIB
[8] abbreviates: Homo sapiens, MHCC97H cells, inhibitor alone (synergy studies), read-out: IC50 (μM) OF KINASE INHIBITORS
Where [9] appears, read: MHCC97H cells, in combination with fixed 1.3 μM milciclib, read-out: IC50 (μM) KINASE INHIBITORS + 1.3 μM MILCICLIB
The mark [10] stands for this setting: HepG2.2.15, individual inhibitor, 72 hours, WST-1.
Where [11] appears, read: Homo sapiens, MHCC97H, 72 h, MHCC97H cells, inhibitor alone (synergy studies), read-out: IC50 (μM) OF KINASE INHIBITORS

For `COc1cc2nccc(Oc3ccc(NC(=O)NC4CC4)c(Cl)c3)c2cc1C(N)=O` [LENVATINIB, lenvatinib], the IC50 was determined as 0.14 µM in the experiment with MHCC97L cells [1]; 0.28 µM in the experiment on MHCC97H cells [2] (setting [6]); 0.12 µM in the experiment with MHCC97H cells [2] (setting [7]); 0.28 µM in the experiment on MHCC97H cells [2] (setting [8]); 0.24 µM in the experiment on HepG2.2.15 cells (HepG2.2.15, 72 h). In addition, the invasion potential result in the experiment with MHCC97L cells [3] and in the experiment with MHCC97H cells [4] was “reduced the invasion potential to a greater extent” throughout.

Take `CC(=O)c1c(C)c2cnc(Nc3ccc(N4CCNCC4)cn3)nc2n(C2CCCC2)c1=O` [PALBOCICLIB, palbociclib]: the IC50 in the experiment with MHCC97L cells [1] is 8.2 µM; with MHCC97H cells [2] (Homo sapiens, 72 h, MHCC97H cells, inhibitor alone (synergy studies), read-out: IC50 (μM) OF KINASE INHIBITORS), 14.5 µM; in the experiment on MHCC97H cells [2] (setting [6]), 14.5 µM; with MHCC97H cells [2] (setting [9]), 6.7 µM; in the experiment on HepG2.2.15 cells (HepG2.2.15, 72 h), 11.1 µM.

On to `CNC(=O)c1cc(Oc2ccc(NC(=O)Nc3ccc(Cl)c(C(F)(F)F)c3)c(F)c2)ccn1` [REGORAFENIB, regorafenib], for which the half-maximal inhibitory concentration (IC50) was found to be 3.5 µM with MHCC97L cells [1]; 4.7 µM in the experiment with MHCC97H cells [2] (setting [6]); 1.9 µM in the experiment on MHCC97H cells [2] (setting [7]); 4.7 µM in the experiment with MHCC97H cells [2] (setting [8]); 3.94 µM in the experiment with HepG2.2.15 cells (setting [10]). The invasion potential entry with MHCC97L cells [3] and with MHCC97H cells [4] was “reduced the invasion potential to a greater extent” each time.

Regarding `CNC(=O)c1cc(Oc2ccc(NC(=O)Nc3ccc(Cl)c(C(F)(F)F)c3)cc2)ccn1` [SORAFENIB, sorafenib], the “serum AFP levels” value in the experiment with alpha-fetoprotein (AFP) is listed as “Significantly lower”. Further, the half-maximal inhibitory concentration (IC50) in the experiment with MHCC97L cells [1] stood at 8.8 µM; with MHCC97H cells [2] (setting [11]), 12 µM; in the experiment with MHCC97H cells [2] (Homo sapiens, MHCC97H, MHCC97H cells, in combination with fixed 1.3 μM milciclib, read-out: IC50 (μM) KINASE INHIBITORS + 1.3 μM MILCICLIB), 6.7 µM; in the experiment on MHCC97H cells [2] (Homo sapiens, MHCC97H, MHCC97H cells, inhibitor alone (synergy studies), read-out: IC50 (μM) OF KINASE INHIBITORS), 12 µM; with MHCC97H cells [2] (setting [6]), 12 µM; in the experiment with HepG2.2.15 cells (setting [10]), 6.48 µM. The invasion potential entry in the experiment with MHCC97L cells [3] and in the experiment with MHCC97H cells [4] was “reduced the invasion potential to a greater extent” each time. The compound also yielded a reducing tumor growth in experiment [5] of 21%. In the experiment with miR-221 and miR-222, the “expression of miR-221 and miR-222” value is “modestly reduced”.

Regarding `CCN(CC)CCNC(=O)c1c(C)[nH]c(/C=C2\C(=O)Nc3ccc(F)cc32)c1C` [SUNITINIB, sunitinib], the half-maximal inhibitory concentration (IC50) with MHCC97L cells [1] was found to be 8.2 µM; in the experiment with MHCC97H cells [2] (setting [11]) it was 30.4 µM; in the experiment on MHCC97H cells [2] (Homo sapiens, MHCC97H, 72 h, individual inhibitor, 72 hours, WST-1, read-out: MHCC97H IC50), 30.5 µM; in the experiment with MHCC97H cells [2] (setting [9]) it was 17.2 µM; in the experiment on HepG2.2.15 cells (setting [10]) it was 25.4 µM.
